Tests used:
[1] = tested on: SiaT9 (α-2,3-sialyltransferase); assay: In vitro sialyltransferase activity assay with acceptor substrates, product detected by thin layer chromatography; assay type: biochemical, Vibrio sp. JT-FAJ-16; set-up: key to Formation of sialylated reaction product, SiaT9: +: A sialylated reaction product was detectable.; −: A sialylated reaction product was not detectable; conditions: TLC; for Formation of sialylated reaction product, SiaT9: E. coli protein extract, 10 mM CMP-Neu5Ac, 5 to 20 mM acceptor substrate, 16 hours; for Sialylation of acceptor substrate by SiaT9: in vitro assay, summary of Table 3
Method: (§1) The E. coli strains harboring the plasmids for siaT9 (α-2,3-sialyltransferase) and siaT18 (α-2,6-sialyltransferase) expression were grown at 30° C. in 100 ml shake flasks filled with 20 ml of 2YT medium supplemented with ampicillin 100 μg ml^−1. When the cultures reached an OD600 of 0.1 to 0.3, gene expression was induced by addition of 0.3 mM IPTG and the incubation was continued for 12 to 16 hours. Cells were harvested by centrifugation and mechanically disrupted in a defined volume of 50 mM Tris-HCl pH7.5 using glass beads. The protein extract was kept on ice until the assay started. The in vitro assay was carried out in a total volume of 25 μl including 50 mM Tris-HCl PH7.5, 5 mM MgCl2, 10 mM CMP-Neu5Ac and 5 to 20 mM of the appropriate acceptor substrates. The assay started with the addition of 3 μl protein extract and continued for 16 hours. Formation of sialylated oligosaccharides resulting from the activity of the sialyltransferases was determined by thin layer chromatography.
(§2) Therefore, samples were applied on Silica Gel 60 F254 (Merck KGaA, Darmstadt, Germany)-plates. A mixture of butanol:acetone:acetic acid:H2O (35/35/7/23 (v/v/v/v)) was used as mobile phase. For detection of the separated substances, the TLC plate was soaked with thymol reagent (0.5 g thymol solved in 95 ml ethanol, 5 ml sulfuric acid added) and heated. Sialylated reaction products run slower than their acceptor substrates.
(§3) Table 3: In vitro analyses determining sialyltransferase activities of two exemplary sialyltransferases depending on the supplied acceptor substrate. The formation of sialylated saccharides was determined by thin layer chromatography. (+) A sialylated reaction product was detectable. (−) A sialylated reaction product was not detectable.

[2] = tested on: SiaT18 (α-2,6-sialyltransferase); assay: as above; assay type: biochemical, Photobacterium leiognathi JT-SHIZ-119; set-up: key to Formation of sialylated reaction product, SiaT18: +: A sialylated reaction product was detectable.; −: A sialylated reaction product was not detectable; conditions: TLC; for Formation of sialylated reaction product, SiaT18: E. coli protein extract, 10 mM CMP-Neu5Ac, 5 to 20 mM acceptor substrate, 16 hours; for Sialylation of acceptor substrate by SiaT18: in vitro assay, summary of Table 3
Method: as §1, §2, §3

| Structure (SMILES) | Formation of sialylated reaction product, SiaT9 [1] | Sialylation of acceptor substrate by SiaT9 [1] | Formation of sialylated reaction product, SiaT18 [2] | Sialylation of acceptor substrate by SiaT18 [2] |
| --- | --- | --- | --- | --- |
| OC[C@H]1O[C@@](CO)(O[C@H]2O[C@H](CO)[C@@H](O)[C@H](O)[C@H]2O)[C@@H](O)[C@@H]1O [Sucrose] | − | No sialylated oligosaccharide was detectable | − | No sialylated oligosaccharide was detectable |
| CC(=O)N[C@H]1[C@H](O[C@H]2[C@@H](O)[C@@H](CO)O[C@@H](O[C@H]3[C@H](O)[C@@H](O)C(O)O[C@@H]3CO)[C@@H]2O)O[C@H](CO)[C@@H](O)[C@@H]1O[C@@H]1O[C@H](CO)[C@H](O)[C@H](O)[C@H]1O (stereo partly drawn) [Lacto-N-tetraose] | + |  | + |  |
| OC[C@H]1O[C@@H](O[C@H]2[C@H](O)[C@@H](O)C(O)O[C@@H]2CO)[C@H](O)[C@@H](O)[C@H]1O (stereo partly drawn) [Lactose] | + |  | + |  |
| O=C[C@H](O)[C@@H](O)[C@@H](O)[C@H](O)CO [Galactose] | + | capable to sialylate | + | capable to sialylate |
